From ChEMBL document CHEMBL1201862, “PubChem BioAssay data set” (2004)
Calls of active or inactive are those of the source.

Legend:
Coagulation factor XII = biological target: T1, Coagulation factor XII (Homo sapiens, UniProt P00748); format: functional;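 also: activated factor XIIa alpha cleaving a fluorogenic AMC peptide substrate; inhibitor potency from loss of enzyme activity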
T1 sequence (P00748 whole entry): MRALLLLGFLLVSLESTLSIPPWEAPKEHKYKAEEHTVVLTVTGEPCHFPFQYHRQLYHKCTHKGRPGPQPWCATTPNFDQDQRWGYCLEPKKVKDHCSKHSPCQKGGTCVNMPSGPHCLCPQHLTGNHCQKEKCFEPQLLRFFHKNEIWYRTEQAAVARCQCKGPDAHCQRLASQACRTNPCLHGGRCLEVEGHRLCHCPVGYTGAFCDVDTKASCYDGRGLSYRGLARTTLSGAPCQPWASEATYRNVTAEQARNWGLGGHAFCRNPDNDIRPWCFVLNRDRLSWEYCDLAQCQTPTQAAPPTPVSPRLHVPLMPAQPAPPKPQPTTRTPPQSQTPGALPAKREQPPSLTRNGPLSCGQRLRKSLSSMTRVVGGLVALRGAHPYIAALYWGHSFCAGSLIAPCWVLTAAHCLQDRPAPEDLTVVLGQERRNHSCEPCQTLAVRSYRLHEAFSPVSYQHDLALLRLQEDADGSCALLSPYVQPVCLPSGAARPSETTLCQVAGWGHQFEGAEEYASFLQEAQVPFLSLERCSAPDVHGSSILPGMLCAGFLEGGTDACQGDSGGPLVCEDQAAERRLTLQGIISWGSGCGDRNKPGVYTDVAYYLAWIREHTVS

[1] = biological target: T2, Voltage-gated N-type calcium channel alpha-1B subunit/Amyloid beta A4 precursor protein-binding family A member 1 (Homo sapiens, UniProt Q00975+Q02410); format: protein assay
[2] = biological target: T2, Voltage-gated N-type calcium channel alpha-1B subunit/Amyloid beta A4 precursor protein-binding family A member 1; format: protein assay; remark: listed apart in the source
[3] = C. albicans growth with fluconazole, confirmation, fluorescence, retest (AID 2467); format: functional, cell-based
[4] = THP-1 cell cytotoxicity, dose response, cytotoxicity control for non-replicating M. tuberculosis project (AID 489025); format: functional
[5] = NIH-3T3 fibroblast cytotoxicity, dose response, cytotoxicity control, cell-based, fluorescence, Alamar Blue, secondary assay (AID 2327); format: functional;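 also: NIH-3T3 mouse fibroblasts cultured with fluconazole at 8 µg/mL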
cells = format: functional
[6] = Luminescence Cell-Based Dose Retest to Confirm Inhibitors of Cancer Stem Cells. [Related pubchem assays (depositor defined):AID2717, AID2721]; format: functional; details: Homo sapiens
Vero = assay: cells; format: functional; details: Chlorocebus sabaeus
[7] = inhibitors of SNCA 5'UTR-driven reporter translation, confirmation, H4 neuroglioma cells, luminescence (AID 1988); format: functional, cell-based
[8] = cytotoxicity toward DRD oncogenic fibroblasts, dose response, cell-based, non-viral oncogenic, luminescence (AID 1934); format: functional; details: Homo sapiens
[9] = cytotoxicity in HEK-293T cells, dose response, cytotoxicity control for TCR NF-kB inhibitor project, luminescence, T-cell screen hits (AID 489026); format: functional, cell-based;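 also: cells exposed to compound about 14 hours before the viability readout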
BJ [10] = assay: cytotoxicity toward BJ-TERT fibroblasts, dose response, cell-based, RAS-independent, luminescence (AID 1933); format: functional; details: Homo sapiens
[11] = Luminescence Cell-Based Dose Response HTS to Identify Inhibitors of 5'UTR Stem-Loop Driven Prion Protein mRNA Translation in H4 Neuroglioblastoma Cells. [Related pubchem assays: 1827 (Project Summary), 1813 (Primary HTS)]; format: functional
[12] = inhibitors of firefly luciferase expression or activity, dose response, H4 neuroglioma cells, luminescence (AID 1990); format: functional, cell-based
BJ [13] = assay: cells; format: functional, cell-based; details: Homo sapiens
BJ [14] = assay: cytotoxicity toward BJ-TERT-LT-ST fibroblasts, dose response, cell-based, RAS-independent, luminescence (AID 1935); format: functional; details: Homo sapiens;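 also: BJ fibroblasts immortalized with TERT plus LT and ST oncogenes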
Estrogen receptor = biological target: T3, Estrogen receptor (Homo sapiens, UniProt P03372);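 also: potency for inhibiting coactivator peptide recruitment to the receptor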
T3 sequence (P03372 whole entry): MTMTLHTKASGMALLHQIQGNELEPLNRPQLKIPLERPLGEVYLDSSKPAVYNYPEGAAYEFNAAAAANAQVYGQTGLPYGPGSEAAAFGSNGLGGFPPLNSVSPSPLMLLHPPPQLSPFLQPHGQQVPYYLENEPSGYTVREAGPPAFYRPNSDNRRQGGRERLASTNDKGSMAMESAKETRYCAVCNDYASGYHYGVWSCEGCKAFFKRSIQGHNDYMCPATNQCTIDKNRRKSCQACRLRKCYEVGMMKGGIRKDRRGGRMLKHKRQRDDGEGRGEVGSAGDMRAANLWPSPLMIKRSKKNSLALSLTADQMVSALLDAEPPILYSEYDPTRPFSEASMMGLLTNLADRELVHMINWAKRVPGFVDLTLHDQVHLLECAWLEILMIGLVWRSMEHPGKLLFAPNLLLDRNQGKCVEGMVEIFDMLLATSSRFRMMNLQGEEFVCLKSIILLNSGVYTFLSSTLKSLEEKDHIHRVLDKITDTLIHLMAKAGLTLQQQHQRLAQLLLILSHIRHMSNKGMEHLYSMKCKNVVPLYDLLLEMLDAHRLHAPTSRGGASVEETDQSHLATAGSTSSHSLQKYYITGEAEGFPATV

[15] = biological target: T4, Replicative DNA helicase DnaB (Mycobacterium tuberculosis, UniProt P9WMR3); assay: DnaB intein splicing inhibitors, dose response, biochemical, cell-free fluorescence (AID 449749); format: functional
T4 sequence (P9WMR3 whole entry): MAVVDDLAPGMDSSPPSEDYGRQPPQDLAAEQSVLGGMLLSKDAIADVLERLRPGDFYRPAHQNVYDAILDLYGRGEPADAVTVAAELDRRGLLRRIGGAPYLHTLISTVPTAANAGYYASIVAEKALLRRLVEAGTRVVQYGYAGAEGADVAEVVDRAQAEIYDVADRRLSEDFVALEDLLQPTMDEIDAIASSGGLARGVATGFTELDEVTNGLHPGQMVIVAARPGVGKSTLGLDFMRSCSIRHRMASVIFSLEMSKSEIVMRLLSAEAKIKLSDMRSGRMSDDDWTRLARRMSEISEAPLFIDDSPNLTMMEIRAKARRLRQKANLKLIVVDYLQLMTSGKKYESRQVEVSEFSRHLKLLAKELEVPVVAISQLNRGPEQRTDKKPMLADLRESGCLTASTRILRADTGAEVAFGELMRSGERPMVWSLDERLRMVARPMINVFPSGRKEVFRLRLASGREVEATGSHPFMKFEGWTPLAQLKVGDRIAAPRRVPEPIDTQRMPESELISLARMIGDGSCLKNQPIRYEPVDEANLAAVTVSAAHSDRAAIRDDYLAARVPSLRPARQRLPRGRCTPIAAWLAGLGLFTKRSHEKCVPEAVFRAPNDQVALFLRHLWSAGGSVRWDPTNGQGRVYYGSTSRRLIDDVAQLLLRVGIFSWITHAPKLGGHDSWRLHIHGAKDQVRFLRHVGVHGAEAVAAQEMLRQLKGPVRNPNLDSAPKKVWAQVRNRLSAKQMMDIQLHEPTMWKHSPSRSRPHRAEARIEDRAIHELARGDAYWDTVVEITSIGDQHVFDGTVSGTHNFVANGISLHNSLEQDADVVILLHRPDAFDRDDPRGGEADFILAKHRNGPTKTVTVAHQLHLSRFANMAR

[16] = biological target: T5, Type-1 angiotensin II receptor (Homo sapiens, UniProt P30556); assay: AT1 receptor antagonists, dose response, selectivity assay for APJ receptor antagonist project, cell-based, uHTS hits (AID 463214); format: functional;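 also: antagonist potency against angiotensin II stimulated AT1 response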
T5 sequence (P30556 whole entry): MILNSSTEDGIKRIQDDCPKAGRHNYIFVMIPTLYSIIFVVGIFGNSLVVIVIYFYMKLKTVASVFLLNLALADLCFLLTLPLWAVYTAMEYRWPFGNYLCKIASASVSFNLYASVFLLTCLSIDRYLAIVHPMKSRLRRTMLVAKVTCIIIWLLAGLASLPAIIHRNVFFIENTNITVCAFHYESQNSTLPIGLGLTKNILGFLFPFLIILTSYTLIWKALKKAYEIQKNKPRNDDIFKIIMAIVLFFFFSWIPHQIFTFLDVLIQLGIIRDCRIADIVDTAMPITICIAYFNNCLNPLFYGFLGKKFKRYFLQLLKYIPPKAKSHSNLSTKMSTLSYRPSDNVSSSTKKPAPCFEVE

Protein RecA = biological target: T6, Protein RecA (Mycobacterium tuberculosis, UniProt P9WHJ3); assay: Fluorescence Cell-Free Homogeneous Dose Retest to Identify Inhibitors of RecA-Intein Splicing Activity. [Related pubchem assays (depositor defined):AID2097, AID2223, AID489010, AID492950]; format: functional
T6 sequence (P9WHJ3 whole entry): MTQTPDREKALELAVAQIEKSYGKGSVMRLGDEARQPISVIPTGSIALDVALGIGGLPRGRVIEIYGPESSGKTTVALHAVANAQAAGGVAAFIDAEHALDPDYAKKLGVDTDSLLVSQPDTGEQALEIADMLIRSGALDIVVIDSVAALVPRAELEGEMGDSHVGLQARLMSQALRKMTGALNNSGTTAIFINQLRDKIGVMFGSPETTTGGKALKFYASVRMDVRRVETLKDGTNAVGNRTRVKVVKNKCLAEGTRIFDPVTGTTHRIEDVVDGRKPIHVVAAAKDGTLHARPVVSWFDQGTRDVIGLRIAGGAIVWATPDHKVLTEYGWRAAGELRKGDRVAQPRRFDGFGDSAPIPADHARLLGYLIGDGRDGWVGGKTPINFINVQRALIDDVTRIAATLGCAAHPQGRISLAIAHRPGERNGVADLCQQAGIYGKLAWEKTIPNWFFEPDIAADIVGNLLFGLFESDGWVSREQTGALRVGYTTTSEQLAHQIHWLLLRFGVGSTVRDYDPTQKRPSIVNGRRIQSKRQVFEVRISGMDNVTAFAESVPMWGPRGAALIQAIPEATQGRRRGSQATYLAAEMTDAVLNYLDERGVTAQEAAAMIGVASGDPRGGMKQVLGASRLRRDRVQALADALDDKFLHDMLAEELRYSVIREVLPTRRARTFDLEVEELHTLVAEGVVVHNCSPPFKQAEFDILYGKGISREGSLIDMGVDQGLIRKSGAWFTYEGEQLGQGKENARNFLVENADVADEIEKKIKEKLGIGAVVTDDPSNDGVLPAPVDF

Beta-galactosidase = Beta-galactosidase (Escherichia coli, UniProt Q8VNN2); assay: PubChem AID 485352; format: functional
Cytochrome P450 3A4 = Cytochrome P450 3A4 (Homo sapiens, UniProt P08684);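 also: CYP3A4 tested as one member of a cytochrome P450 panel screen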
[17] = biological target: Induced myeloid leukemia cell differentiation protein Mcl-1 (Homo sapiens, UniProt Q07820); format: functional
Induced myeloid leukemia cell differentiation protein Mcl-1, sequence (Q07820 whole entry): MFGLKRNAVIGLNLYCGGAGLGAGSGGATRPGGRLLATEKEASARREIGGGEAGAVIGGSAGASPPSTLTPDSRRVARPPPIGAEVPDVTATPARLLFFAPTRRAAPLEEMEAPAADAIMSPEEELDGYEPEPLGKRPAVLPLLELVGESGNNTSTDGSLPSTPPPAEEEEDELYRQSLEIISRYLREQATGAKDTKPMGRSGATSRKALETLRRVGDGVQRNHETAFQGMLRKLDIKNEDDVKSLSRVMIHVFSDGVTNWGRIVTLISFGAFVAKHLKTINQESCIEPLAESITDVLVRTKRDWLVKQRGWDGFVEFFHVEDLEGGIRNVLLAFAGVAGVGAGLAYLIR

T2 sequence (Q00975 whole entry): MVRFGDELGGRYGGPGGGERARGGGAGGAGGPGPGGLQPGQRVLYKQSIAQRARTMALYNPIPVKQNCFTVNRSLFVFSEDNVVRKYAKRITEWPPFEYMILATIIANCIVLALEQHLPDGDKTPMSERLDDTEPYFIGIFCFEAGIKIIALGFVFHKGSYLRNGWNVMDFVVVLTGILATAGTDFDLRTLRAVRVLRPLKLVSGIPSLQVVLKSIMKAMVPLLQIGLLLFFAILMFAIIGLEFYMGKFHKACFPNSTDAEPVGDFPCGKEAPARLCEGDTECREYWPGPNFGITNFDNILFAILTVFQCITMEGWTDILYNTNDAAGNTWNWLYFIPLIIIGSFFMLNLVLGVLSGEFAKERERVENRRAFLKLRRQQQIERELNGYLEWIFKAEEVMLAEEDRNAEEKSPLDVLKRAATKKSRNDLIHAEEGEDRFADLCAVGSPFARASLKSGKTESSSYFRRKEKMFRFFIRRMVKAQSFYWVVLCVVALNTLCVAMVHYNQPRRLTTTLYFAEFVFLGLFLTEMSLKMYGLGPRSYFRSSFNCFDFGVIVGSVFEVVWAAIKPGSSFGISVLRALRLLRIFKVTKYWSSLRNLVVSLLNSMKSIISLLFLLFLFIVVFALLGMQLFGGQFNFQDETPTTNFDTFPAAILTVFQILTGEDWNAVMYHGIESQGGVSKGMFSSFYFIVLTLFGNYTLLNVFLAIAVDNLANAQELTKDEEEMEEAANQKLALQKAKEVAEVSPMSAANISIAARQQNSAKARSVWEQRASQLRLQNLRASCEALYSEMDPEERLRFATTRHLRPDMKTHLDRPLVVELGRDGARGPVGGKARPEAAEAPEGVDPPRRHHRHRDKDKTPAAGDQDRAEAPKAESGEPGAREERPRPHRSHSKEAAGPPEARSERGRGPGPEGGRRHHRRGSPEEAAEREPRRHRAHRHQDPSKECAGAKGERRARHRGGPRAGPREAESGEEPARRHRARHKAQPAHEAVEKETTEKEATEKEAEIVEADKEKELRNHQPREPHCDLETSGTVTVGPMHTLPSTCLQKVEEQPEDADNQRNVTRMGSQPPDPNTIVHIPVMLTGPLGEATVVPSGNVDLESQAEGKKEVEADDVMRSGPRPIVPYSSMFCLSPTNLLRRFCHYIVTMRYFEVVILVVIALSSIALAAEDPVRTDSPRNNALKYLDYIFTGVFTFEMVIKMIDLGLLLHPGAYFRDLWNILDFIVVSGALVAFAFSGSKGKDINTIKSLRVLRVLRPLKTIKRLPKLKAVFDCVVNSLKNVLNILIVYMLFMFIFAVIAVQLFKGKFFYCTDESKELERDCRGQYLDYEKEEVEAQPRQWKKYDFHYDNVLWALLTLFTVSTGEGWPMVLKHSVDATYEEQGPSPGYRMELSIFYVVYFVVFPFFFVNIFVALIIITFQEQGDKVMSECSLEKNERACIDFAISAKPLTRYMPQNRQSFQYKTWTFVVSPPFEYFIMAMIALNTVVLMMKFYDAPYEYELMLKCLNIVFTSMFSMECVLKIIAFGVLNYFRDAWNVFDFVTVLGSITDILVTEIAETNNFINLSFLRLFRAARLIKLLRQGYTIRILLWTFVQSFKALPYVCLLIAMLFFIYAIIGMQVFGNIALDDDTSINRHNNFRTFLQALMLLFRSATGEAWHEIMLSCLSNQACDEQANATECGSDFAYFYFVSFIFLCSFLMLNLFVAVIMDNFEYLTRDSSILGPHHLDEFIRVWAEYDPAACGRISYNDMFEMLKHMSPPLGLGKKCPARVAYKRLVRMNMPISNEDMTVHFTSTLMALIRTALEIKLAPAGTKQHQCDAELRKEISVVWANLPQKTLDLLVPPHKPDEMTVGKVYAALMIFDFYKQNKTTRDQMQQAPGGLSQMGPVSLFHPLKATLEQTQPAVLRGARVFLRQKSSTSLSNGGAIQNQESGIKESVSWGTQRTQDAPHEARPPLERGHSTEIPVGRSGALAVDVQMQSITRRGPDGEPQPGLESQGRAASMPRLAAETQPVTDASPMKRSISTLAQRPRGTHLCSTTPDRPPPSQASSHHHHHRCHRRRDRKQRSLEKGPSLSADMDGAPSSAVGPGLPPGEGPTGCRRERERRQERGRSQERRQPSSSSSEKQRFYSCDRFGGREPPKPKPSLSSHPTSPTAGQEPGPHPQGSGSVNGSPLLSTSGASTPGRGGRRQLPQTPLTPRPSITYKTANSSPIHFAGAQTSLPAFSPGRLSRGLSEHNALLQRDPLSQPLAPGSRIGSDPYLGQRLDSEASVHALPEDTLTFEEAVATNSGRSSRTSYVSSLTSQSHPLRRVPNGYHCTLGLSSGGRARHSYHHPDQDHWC
T2 sequence (Q02410 whole entry): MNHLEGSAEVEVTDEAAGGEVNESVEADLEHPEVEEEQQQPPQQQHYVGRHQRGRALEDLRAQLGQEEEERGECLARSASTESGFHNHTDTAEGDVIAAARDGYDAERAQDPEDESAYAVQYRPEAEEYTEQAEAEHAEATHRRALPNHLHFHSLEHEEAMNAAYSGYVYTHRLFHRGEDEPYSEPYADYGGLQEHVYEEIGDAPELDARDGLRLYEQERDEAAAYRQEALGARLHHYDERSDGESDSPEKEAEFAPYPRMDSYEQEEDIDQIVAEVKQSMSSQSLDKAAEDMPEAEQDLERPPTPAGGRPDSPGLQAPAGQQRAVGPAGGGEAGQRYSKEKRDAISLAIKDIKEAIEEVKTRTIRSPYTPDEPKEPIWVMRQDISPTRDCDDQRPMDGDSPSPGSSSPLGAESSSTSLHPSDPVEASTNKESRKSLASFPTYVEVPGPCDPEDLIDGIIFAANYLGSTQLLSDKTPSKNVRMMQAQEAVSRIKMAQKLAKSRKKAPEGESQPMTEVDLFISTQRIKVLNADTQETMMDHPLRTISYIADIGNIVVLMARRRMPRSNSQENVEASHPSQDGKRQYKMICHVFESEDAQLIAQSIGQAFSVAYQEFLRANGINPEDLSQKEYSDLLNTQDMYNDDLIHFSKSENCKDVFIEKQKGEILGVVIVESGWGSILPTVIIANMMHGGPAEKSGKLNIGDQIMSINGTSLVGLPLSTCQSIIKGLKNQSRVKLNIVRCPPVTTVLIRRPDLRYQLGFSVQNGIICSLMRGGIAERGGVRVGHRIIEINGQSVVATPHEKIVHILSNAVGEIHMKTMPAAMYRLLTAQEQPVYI
Beta-galactosidase, sequence (Q8VNN2 whole entry): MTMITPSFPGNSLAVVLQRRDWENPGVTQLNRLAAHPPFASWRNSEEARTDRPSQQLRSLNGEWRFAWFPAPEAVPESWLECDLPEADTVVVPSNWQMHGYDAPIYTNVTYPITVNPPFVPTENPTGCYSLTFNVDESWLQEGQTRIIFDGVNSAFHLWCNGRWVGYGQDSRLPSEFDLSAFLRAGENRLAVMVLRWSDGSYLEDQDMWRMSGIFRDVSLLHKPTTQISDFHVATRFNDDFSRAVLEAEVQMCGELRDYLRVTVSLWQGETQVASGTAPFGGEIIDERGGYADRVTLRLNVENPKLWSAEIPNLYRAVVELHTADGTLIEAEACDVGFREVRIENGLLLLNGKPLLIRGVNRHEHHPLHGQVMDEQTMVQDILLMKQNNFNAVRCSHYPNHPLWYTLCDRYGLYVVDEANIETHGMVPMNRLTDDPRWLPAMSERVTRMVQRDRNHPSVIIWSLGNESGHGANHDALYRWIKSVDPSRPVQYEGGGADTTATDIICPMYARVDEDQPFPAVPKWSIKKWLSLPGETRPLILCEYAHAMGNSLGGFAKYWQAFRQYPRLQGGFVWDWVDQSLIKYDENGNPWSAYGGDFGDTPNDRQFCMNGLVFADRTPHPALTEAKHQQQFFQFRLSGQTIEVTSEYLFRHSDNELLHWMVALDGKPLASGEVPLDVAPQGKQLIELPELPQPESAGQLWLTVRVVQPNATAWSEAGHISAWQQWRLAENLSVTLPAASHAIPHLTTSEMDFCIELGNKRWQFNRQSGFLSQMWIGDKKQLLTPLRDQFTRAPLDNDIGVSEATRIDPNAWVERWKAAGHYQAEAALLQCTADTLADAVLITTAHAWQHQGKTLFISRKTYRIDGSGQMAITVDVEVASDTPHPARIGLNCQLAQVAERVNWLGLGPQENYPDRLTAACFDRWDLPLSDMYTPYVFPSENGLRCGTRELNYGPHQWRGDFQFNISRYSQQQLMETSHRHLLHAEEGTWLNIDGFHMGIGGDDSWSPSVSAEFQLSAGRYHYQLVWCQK
Cytochrome P450 3A4, sequence (P08684 whole entry): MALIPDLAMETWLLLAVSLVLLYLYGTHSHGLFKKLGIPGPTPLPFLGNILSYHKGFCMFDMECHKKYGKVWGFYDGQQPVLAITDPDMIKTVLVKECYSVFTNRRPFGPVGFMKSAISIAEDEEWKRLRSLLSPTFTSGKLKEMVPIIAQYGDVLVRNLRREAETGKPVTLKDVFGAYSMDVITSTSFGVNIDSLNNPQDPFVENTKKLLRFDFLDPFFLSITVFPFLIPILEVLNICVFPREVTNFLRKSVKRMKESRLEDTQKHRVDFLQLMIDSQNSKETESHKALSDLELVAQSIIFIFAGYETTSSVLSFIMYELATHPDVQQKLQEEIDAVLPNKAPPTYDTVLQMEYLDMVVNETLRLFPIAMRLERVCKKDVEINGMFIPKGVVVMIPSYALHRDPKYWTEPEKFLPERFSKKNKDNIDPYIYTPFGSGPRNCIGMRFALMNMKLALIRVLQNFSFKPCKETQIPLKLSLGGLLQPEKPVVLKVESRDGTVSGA

## Cc1cccc(Nc2cc(=O)[nH]c(=O)[nH]2)c1C
Coagulation factor XII
  IC50: > 50 µM (inactive)

## O=C(Nc1cnc(O)nc1O)c1ccc2c(c1)C(=O)N(c1cccc([N+](=O)[O-])c1)C2=O
[1]
  IC50: 9.85 µM (active)
[2]
  IC50: > 50 µM (inactive)

## OC(CNCCc1ccc(C(F)(F)F)cc1)COc1ccc2ccccc2c1 (stereo not drawn)
[3]
  EC50: > 38 µM (not active)
[4]
  CC50: > 40 µM (active)
[5]
  EC50: 7.21 µM (active)
cells
  IC50: 22.4 µM (active)
[6]
  AC50: 3.34 µM (active)
Vero
  CC50: 16.6 µM (active)

## CCOc1ccc(N=C(N)Nc2nc(CSc3nnc(C)s3)cc(=O)[nH]2)cc1
Coagulation factor XII
  IC50: > 50 µM (inactive)

## CCOc1ccc(NC(=N)Nc2nc(O)cc(CSc3nnc(C)s3)n2)cc1
[7]
  EC50: 5.83 µM (active)
[8]
  EC50: 0.597 µM (active)
[9]
  IC50: > 80 µM (inactive)
BJ [10]
  EC50: 1.11 µM (active)
[11]
  EC50: 0.291 µM (active)
[12]
  EC50: 9.79 µM (active)
BJ [13]
  EC50: 20.6 µM (active)
[6]
  AC50: 0.298 µM (active)
BJ [14]
  EC50: 1.37 µM (active)

## CCN(CC)C(=O)C(C(=O)c1cccc([N+](=O)[O-])c1)n1cc(Cl)ccc1=O (stereo not drawn)
[8]
  EC50: > 150 µM (not active)
BJ [10]
  EC50: > 150 µM (not active)
BJ [13]
  EC50: > 150 µM (not active)
BJ [14]
  EC50: > 150 µM (inconclusive)

## O=c1[nH]c(-c2ccc3c(c2)OCO3)nc2c1sc(=S)n2-c1ccccc1
[1]
  IC50: 5.13 µM (active)
[2]
  IC50: > 50 µM (inactive)

## CCCc1nnc2n1N=C(c1ccc(-c3cc(Cl)ccc3Cl)o1)CS2
Estrogen receptor
  IC50: 13.4 µM (active)

## CN1CCN(S(=O)(=O)c2ccc(Br)s2)CC1
Coagulation factor XII
  IC50: > 50 µM (inactive)

## O=C(CSc1nc2c(c(=O)n1-c1ccc(Br)cc1)SCC2)Nc1nccs1
Estrogen receptor
  IC50: > 50 µM (not active)

## COc1cc(NC(=O)c2ccccc2F)ccc1NC(=O)c1cc2ccccc2o1
[1]
  IC50: 15.9 µM (active)
[2]
  IC50: > 50 µM (inactive)

## COc1cccc(NC(=N)Nc2nc(O)cc(CSc3ccccn3)n2)c1
[9]
  IC50: > 80 µM (inactive)

## COC(=O)CS(=O)(=O)c1nnc([C@H](Cc2ccccc2)NC(=O)OC(C)(C)C)o1
[15]
  AC50: 6.11 µM (active)
[16]
  IC50: 12.4 µM (active)
Coagulation factor XII
  IC50: 8.95 µM (active)
Protein RecA
  EC50: 7.24 µM (active)
Beta-galactosidase
  EC50: > 40 µM (inactive)

## COc1cc(OC)nc(NC(=O)C(C)C)n1
Estrogen receptor
  IC50: > 50 µM (not active)

## CCCCOc1ccccc1C1CC(=O)NC2=C1C(=O)CCC2 (stereo not drawn)
[9]
  IC50: > 80 µM (inactive)
Cytochrome P450 3A4
  AC50: 15.8 µM (inconclusive)

## COC(Cn1c(C)c(C(C)=O)c(C(C)=O)c1C)OC
Coagulation factor XII
  IC50: > 50 µM (inactive)

## CC(/C=C/c1ccco1)=N\NC(=O)c1cc(C)[nH]n1
[17]
  IC50: 4.92 µM (active)
[1]
  IC50: 4.52 µM (active)
[2]
  IC50: 11.8 µM (active)
